pIC50: −log10 of the molar value.
How the values were obtained:
[1] = biological target: T1, Integrin alpha-IIb/beta-3 (Homo sapiens, UniProt P05106+P08514); test: Inhibition of human Biotinylated Fg binding to immobilized Alpha II beta-3; assay type: protein-complex assay
[2] = Inhibition of human Biotinylated Fg binding to immobilized Alpha II biotinylated Fg beta-5
[3] = biological target: Integrin alpha-V/beta-3 (Homo sapiens, UniProt P05106+P06756); test: Inhibition of human vitronectin binding to immobilized Alpha v beta-3; assay type: protein-complex assay
Integrin alpha-V/beta-3, sequence (P05106 27-788 limits assumed): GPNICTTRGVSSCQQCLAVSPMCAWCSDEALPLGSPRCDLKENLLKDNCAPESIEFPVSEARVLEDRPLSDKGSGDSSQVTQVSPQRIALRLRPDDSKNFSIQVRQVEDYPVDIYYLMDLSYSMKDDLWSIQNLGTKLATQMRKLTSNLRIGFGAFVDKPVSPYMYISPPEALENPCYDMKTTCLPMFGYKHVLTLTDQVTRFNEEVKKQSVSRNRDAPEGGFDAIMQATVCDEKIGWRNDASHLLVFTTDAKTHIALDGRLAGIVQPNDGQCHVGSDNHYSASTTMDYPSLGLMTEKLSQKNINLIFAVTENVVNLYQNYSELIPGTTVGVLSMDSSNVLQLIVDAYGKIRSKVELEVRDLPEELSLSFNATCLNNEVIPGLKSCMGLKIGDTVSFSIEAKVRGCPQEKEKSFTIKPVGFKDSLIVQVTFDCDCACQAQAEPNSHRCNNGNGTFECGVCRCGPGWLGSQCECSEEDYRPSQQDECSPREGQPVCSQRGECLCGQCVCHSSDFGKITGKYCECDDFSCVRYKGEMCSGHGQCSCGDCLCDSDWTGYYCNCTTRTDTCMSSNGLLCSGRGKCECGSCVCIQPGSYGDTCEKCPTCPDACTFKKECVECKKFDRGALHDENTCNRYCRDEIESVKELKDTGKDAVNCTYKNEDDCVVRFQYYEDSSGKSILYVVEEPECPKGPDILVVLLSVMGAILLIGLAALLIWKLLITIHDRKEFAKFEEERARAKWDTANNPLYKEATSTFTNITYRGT
Integrin alpha-V/beta-3, sequence (P06756 31-889 limits assumed): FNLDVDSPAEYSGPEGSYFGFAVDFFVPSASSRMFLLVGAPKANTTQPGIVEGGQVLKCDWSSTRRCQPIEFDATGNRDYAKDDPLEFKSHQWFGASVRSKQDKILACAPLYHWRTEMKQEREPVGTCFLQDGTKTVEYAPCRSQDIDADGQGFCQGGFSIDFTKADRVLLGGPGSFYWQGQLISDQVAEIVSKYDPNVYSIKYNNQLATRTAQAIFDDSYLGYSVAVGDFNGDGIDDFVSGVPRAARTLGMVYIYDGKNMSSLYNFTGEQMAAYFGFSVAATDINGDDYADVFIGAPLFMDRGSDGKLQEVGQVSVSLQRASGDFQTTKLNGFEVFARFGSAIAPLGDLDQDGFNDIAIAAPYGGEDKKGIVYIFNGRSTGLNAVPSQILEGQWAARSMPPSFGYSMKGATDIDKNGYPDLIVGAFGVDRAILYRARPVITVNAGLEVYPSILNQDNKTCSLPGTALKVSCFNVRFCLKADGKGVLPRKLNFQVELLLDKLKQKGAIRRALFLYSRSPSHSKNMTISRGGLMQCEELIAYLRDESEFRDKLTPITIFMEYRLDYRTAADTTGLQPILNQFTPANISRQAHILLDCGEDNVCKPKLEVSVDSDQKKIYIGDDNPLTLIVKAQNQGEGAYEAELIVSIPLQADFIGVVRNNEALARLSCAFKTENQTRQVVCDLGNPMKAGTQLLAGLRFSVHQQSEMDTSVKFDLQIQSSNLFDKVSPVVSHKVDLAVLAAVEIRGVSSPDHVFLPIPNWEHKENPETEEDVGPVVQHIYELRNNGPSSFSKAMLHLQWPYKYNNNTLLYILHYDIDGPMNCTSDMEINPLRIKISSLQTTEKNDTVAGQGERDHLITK
Integrin alpha-V/beta-3, sequence (P06756 891-1048 limits assumed): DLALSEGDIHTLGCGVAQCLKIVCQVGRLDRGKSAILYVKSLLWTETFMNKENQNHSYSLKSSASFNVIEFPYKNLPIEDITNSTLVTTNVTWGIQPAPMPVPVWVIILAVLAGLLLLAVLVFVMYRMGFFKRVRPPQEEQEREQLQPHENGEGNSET

[4] = Half life was determined after peroral administration at 10 mg/kg; assay type: ADME, organism-based; design: dose 10 mg/kg, route oral; conditions: rat, in vivo, po
[5] = Oral bioavailability (dose in 5% dextrose in water at pH 2); assay type: ADME, organism-based; conditions: rat, in vivo
[6] = Clearance was determined after intravenous administration at 2 mg/kg; assay type: ADME, organism-based; design: dose 2 mg/kg, route intravenous; conditions: rat, in vivo
[7] = AUC was determined after peroral administration at 10 mg/kg; assay type: ADME, organism-based; design: dose 10 mg/kg, route oral; conditions: rat, plasma, po
[8] = biological target: T1, Integrin alpha-IIb/beta-3; test: Inhibition of human Biotinylated Fg binding to immobilized Alpha IIb beta-3 (N=1); assay type: protein-complex assay

T1 sequence (P05106 27-788 limits assumed): as the sequence (P05106 27-788 limits assumed) above
T1 sequence (P08514 32-887 limits assumed): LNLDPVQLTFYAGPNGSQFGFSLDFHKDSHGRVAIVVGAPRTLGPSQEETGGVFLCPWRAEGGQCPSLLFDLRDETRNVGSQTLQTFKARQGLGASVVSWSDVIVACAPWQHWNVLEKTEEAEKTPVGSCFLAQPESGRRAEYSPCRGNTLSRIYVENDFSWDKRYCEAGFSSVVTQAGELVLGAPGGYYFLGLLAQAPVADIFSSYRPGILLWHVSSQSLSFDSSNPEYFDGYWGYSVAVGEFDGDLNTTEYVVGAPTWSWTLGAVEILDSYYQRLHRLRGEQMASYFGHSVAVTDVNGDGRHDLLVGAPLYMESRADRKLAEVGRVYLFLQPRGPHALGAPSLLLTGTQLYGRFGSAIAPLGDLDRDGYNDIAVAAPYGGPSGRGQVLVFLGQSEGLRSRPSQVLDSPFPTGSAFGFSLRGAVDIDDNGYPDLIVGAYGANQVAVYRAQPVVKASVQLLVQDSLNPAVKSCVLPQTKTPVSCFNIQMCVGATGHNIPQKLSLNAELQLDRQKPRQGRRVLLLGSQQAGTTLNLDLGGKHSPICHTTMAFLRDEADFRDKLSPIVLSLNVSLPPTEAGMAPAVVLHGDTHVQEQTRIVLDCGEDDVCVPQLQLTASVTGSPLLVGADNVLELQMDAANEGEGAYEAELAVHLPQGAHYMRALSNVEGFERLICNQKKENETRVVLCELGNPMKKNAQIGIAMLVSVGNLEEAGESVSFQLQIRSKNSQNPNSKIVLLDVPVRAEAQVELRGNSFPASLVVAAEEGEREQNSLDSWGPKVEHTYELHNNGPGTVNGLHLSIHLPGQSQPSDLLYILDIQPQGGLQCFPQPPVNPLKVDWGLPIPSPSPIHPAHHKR
T1 sequence (P08514 891-1039 limits assumed): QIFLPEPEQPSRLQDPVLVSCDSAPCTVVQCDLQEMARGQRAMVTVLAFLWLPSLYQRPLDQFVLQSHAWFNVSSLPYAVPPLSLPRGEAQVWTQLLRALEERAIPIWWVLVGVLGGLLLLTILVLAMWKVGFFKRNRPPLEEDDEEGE

Row | Structure (SMILES) | pIC50 [1] | pIC50 [2] | pIC50 [3] | half-life [4] | bioavailability [5] | CI [6] | AUC [7] | pIC50 [8]
1 | O=C(O)CC(CCC1CCN(C(=O)Cc2ccc3c(n2)NCCC3)CC1)c1ccc2c(c1)OCO2 (stereo unspecified) | < 5.00 | 6.39 | 7.12 |  |  |  |  | 
2 | O=C(O)CC(c1ccc2c(c1)OCO2)C1CCN(C(=O)CCCc2ccc3c(n2)NCCC3)CC1 (stereo unspecified) |  | 7.47 |  |  |  |  |  | 
3 | N/C(=N\Cc1ccncc1)Nc1cccc(C(=O)N2CCC(C(=O)NC(CC(=O)O)c3ccc4c(c3)OCO4)CC2)c1 (stereo unspecified) | 7.25 |  | 7.60 |  |  |  |  | 
4 | O=C(O)CC(CCC1CCN(C(=O)c2cccc(NC3=NCC(O)CN3)c2)CC1)c1ccc2c(c1)OCO2 (stereo unspecified) | 5.80 |  | 8.77 | 5.4 h | 2.6% | 0.04 mg/kg/µM/h | 21.2 µM·h | 
5 | O=C(O)CC(CC1CCN(C(=O)CCCc2ccc3c(n2)NCCC3)CC1)c1ccc2c(c1)OCO2 (stereo unspecified) | 5.37 | 6.66 | 7.69 |  |  |  |  | 
6 | COc1ncc(C(CC(=O)O)CC2CCN(C(=O)CCc3ccc4c(n3)NCCC4)CC2)c(OC)n1 (stereo unspecified) |  | 8.34 | 8.82 |  | 1% | 1 mg/kg/µM/h | 0.1 µM·h | 
7 | O=C(O)CC(CCC1CCN(C(=O)CCCNc2ccccn2)CC1)c1ccc2c(c1)OCO2 (stereo unspecified) | 4.96 |  | 6.63 | 6.6 h | 96% | 0.2 mg/kg/µM/h | 142 µM·h | 
8 | O=C(O)CC(CCC1CCN(C(=O)CCc2ccc3c(n2)NCCC3)CC1)c1ccc2c(c1)OCO2 (stereo unspecified) | 5.36 |  |  | 3 h | 88% | 0.09 mg/kg/µM/h | 304 µM·h | 
9 | O=C(O)CC(CC1CCN(C(=O)CCc2ccc3c(n2)NCCC3)CC1)c1ccc2c(c1)OCO2 (stereo unspecified) |  | 8.64 |  | 2.1 h | 31% | 0.1 mg/kg/µM/h | 97 µM·h | 
10 | O=C(O)CC(NC(=O)C1CCN(C(=O)c2cccc(NC3=CCCCN3)c2)CC1)c1ccc2c(c1)OCO2 (stereo unspecified) | 6.68 |  | 7.98 |  |  |  |  | 
11 | O=C(O)CC(c1ccc2c(c1)OCO2)C1CCN(C(=O)Cc2ccc3c(n2)NCCC3)CC1 (stereo unspecified) |  | 6.11 |  |  |  |  |  | < 5.00
12 | O=C(O)C[C@H](NC(=O)[C@@H]1CCCN(C(=O)CCC2CCNCC2)C1)c1cccnc1 [ELAROFIBAN] | 9.82 |  | < 4.30 |  |  |  |  | 

Other lines, results leading:

Row | pIC50 [1] | pIC50 [2] | pIC50 [3] | half-life [4] | bioavailability [5] | CI [6] | AUC [7] | pIC50 [8] | Structure (SMILES)
13 | 4.80 |  | 7.66 | 6.7 h | 2.4% | 0.09 mg/kg/µM/h | 79 µM·h |  | O=C(O)CC(NC(=O)C1CCN(C(=O)CCc2ccc3c(n2)NCCC3)CC1)c1ccc2c(c1)OCO2 (stereo unspecified)
14 | 5.21 | 7.02 | 7.55 |  |  |  |  |  | O=C(O)CC(c1ccc2c(c1)OCO2)C1CCN(C(=O)CCc2ccc3c(n2)NCCC3)CC1 (stereo unspecified)
15 | 5.55 |  | 8.59 |  |  |  |  |  | O=C(O)CC(NC(=O)C1CCN(C(=O)CCc2ccc3c(n2)NCCC3)CC1)c1cnc2ccccc2c1 (stereo unspecified)
16 | 6.75 |  | 8.26 |  |  |  |  |  | O=C(O)CC(NC(=O)C1CCN(C(=O)c2cccc(NC3=CCC(O)CN3)c2)CC1)c1cnc2ccccc2c1 (stereo unspecified)
17 |  |  |  | 2.6 h | 4% | 10.4 mg/kg/µM/h | < 0.1 µM·h |  | Cc1ncc(C(CC(=O)O)CC2CCN(C(=O)CCc3ccc4c(n3)NCCC4)CC2)cn1 (stereo unspecified)
18 |  | 8.77 |  |  | 0% | 1.1 mg/kg/µM/h |  |  | O=C(O)CC(CC1CCN(C(=O)CCc2ccc3c(n2)NCCC3)CC1)c1cccnc1 (stereo unspecified)
19 | 7.10 |  | 8.55 |  |  |  |  |  | O=C(O)CC(NC(=O)C1CCN(C(=O)CCCNC2=NCCN2)CC1)c1cnc2ccccc2c1 (stereo unspecified)
20 | < 5.00 | 7.61 |  | 5.65 h | 47% | 0.02 mg/kg/µM/h | 286 µM·h |  | O=C(O)CC(CC1CCN(C(=O)CCc2ccc3c(n2)NCCC3)CC1)c1ccc2ccccc2c1 (stereo unspecified)
21 | < 5.00 | 8.55 |  | 1.7 h | 14% | 0.5 mg/kg/µM/h | 2.7 µM·h |  | O=C(O)CC(CC1CCN(C(=O)CCc2ccc3c(n2)NCCC3)CC1)c1cccc(F)c1 (stereo unspecified)
